The text below walks through data of ChEMBL document CHEMBL3046322, “Insect growth regulatory effects by diterpenes from Calceolaria talcana Grau & Ehrhart (Calceolariaceae: Scrophulariaceae) against Spodoptera frugiperda and Drosophila melanogaster” (2013).

Each structure is given as a SMILES string. Calls of active or inactive are those of the source. No cut-off for these calls is given here.

In assay [1] the test system is Drosophila melanogaster. Nature of the assay: Insecticidal activity against Drosophila melanogaster larvae fed with compound incorporated diet assessed as mortality at 5 to 100 ug/ml after 72 hr by not choice test (reference value: 0%). In kind it is functional, organism-based.
Assay [2] deals with Drosophila melanogaster. Nature of the assay: Insecticidal activity against Drosophila melanogaster larvae fed with compound incorporated diet assessed as mortality at 20 ug/ml after 72 hr by not choice test (reference value: 0%). In kind it is functional.
Assay [3] has as its system Spodoptera frugiperda. The experiment in a line: Growth inhibitory activity against Spodoptera frugiperda (fall armyworm) larvae fed with compound containing diet assessed as growth index at 25 ug/ml (reference value: 0.95 +/-0.02 no_unit). In kind it is functional.
Assay [4] concerns Spodoptera frugiperda. Nature of the assay: Growth inhibitory activity against Spodoptera frugiperda (fall armyworm) larvae fed with compound containing diet assessed as growth index at 50 ug/ml (reference value: 0.95 +/-0.02 no_unit). In kind it is functional.
Assay [5] relates to Spodoptera frugiperda. Nature of the assay: Growth inhibitory activity against Spodoptera frugiperda (fall armyworm) larvae fed with compound containing diet assessed as growth index at 35 ug/ml (reference value: 0.95 +/-0.02 no_unit). In kind it is functional.
Assay [6] concerns Drosophila melanogaster. The experiment in a line: Insecticidal activity against Drosophila melanogaster larvae fed with compound incorporated diet assessed as mortality at 100 ug/ml after 72 hr by not choice test (reference value: 0%). In kind it is functional.
Assay [7] relates to Spodoptera frugiperda. The experiment in a line: Growth inhibitory activity against Spodoptera frugiperda (fall armyworm) larvae fed with compound containing diet assessed as relative growth index at 25 ug/ml (reference value: 1.0 no_unit). In kind it is functional.
In assay [8] the test system is Spodoptera frugiperda. The experiment in a line: Growth inhibitory activity against Spodoptera frugiperda (fall armyworm) larvae fed with compound containing diet assessed as relative growth index at 35 ug/ml (reference value: 1.0 no_unit). In kind it is functional.
Assay [9] deals with Spodoptera frugiperda. Nature of the assay: Growth inhibitory activity against Spodoptera frugiperda (fall armyworm) larvae fed with compound containing diet assessed as relative growth index at 10 ug/ml (reference value: 1.0 no_unit). In kind it is functional.
Assay [10] concerns Spodoptera frugiperda. Nature of the assay: Growth inhibitory activity against po dosed Spodoptera frugiperda (fall armyworm) larvae assessed as promotion of apolysis to fifth instar with ecdysis inhibition at 5 to 20 ug/ml. In kind it is functional, organism-based.
Assay [11] deals with Spodoptera frugiperda. Nature of the assay: Growth inhibitory activity against Spodoptera frugiperda (fall armyworm) larvae fed with compound containing diet assessed as growth index at 10 ug/ml (reference value: 0.95 +/-0.02 no_unit). In kind it is functional.
Assay [12] deals with Spodoptera frugiperda. Nature of the assay: Growth inhibitory activity against po dosed fourth-instar larvae of Spodoptera frugiperda (fall armyworm) assessed as proportion of prothetely appearance of precocious pupal structure in larvae after 48 to 72 hr. In kind it is functional. The arrangement: scale not given: the % may be the effect or the level left.
Assay [13] concerns Drosophila melanogaster. The experiment in a line: Insecticidal activity against Drosophila melanogaster larvae fed with compound incorporated diet assessed as mortality at 50 ug/ml after 72 hr by not choice test (reference value: 0%). In kind it is functional.
For assay [14], the system named is Spodoptera frugiperda. The experiment in a line: Growth inhibitory activity against Spodoptera frugiperda (fall armyworm) larvae fed with compound containing diet assessed as relative growth index at 50 ug/ml (reference value: 1.0 no_unit). In kind it is functional.
Assay [15] has as its system Spodoptera frugiperda. Nature of the assay: Acute toxicity against last larval stage of Spodoptera frugiperda (fall armyworm) assessed as survival at 10 ug/ml applied topically onto abdomen measured after 24 hr (reference value: 98.8 +/-3.5%). In kind it is functional.
Assay [16] deals with Spodoptera frugiperda. The experiment in a line: Insecticidal activity against first-instar larval stage of Spodoptera frugiperda (fall armyworm) fed with compound incorporated diet assessed as mortality at 25 ug/ml after 21 days (reference value: 5.6%). In kind it is functional. Conditions: 504 h.
For assay [17], the system named is Spodoptera frugiperda. The experiment in a line: Growth inhibitory activity against first-instar larval stage of Spodoptera frugiperda (fall armyworm) fed with compound incorporated diet assessed as length gained at 10 ug/ml after 7 days (reference value: 100%). In kind it is functional.
Assay [18] concerns Spodoptera frugiperda. Nature of the assay: Insecticidal activity against first-instar larval stage of Spodoptera frugiperda (fall armyworm) fed with compound incorporated diet assessed as mortality at 10 ug/ml after 7 days (reference value: 5.6%). In kind it is functional. Conditions: 168 h.
The subject of assay [19] is Spodoptera frugiperda. The experiment in a line: Growth inhibitory activity against first-instar larval stage of Spodoptera frugiperda (fall armyworm) fed with compound incorporated diet assessed as weight gained at 10 ug/ml after 7 days (reference value: 100%). In kind it is functional. The arrangement: scale not given: the % may be the effect or the level left.
Assay [20] relates to Spodoptera frugiperda. The experiment in a line: Growth inhibitory activity against first-instar larval stage of Spodoptera frugiperda (fall armyworm) fed with compound incorporated diet assessed as weight gained at 50 ug/ml after 21 days (reference value: 100%). In kind it is functional.
For assay [21], the system named is Spodoptera frugiperda. Nature of the assay: Acute toxicity against last larval stage of Spodoptera frugiperda (fall armyworm) assessed as survival at 25 ug/ml applied topically onto abdomen measured after 24 hr (reference value: 98.8 +/-3.5%). In kind it is functional.
Assay [22] deals with Spodoptera frugiperda. The experiment in a line: Insecticidal activity against first-instar larval stage of Spodoptera frugiperda (fall armyworm) fed with compound incorporated diet assessed as mortality at 25 ug/ml after 7 days (reference value: 5.6%). In kind it is functional. To be noted: 168 h.
The test system of assay [23] is Spodoptera frugiperda. Nature of the assay: Growth inhibitory activity against Spodoptera frugiperda (fall armyworm) larvae fed with compound containing diet assessed as reduction in adult emergence at 35 ug/ml. In kind it is functional.
Assay [24] deals with Spodoptera frugiperda. Nature of the assay: Growth inhibitory activity against first-instar larval stage of Spodoptera frugiperda (fall armyworm) fed with compound incorporated diet assessed as weight gained at 50 ug/ml after 7 days (reference value: 100%). In kind it is functional. The arrangement: scale not given: the % may be the effect or the level left.
For assay [25], the system named is Spodoptera frugiperda. Nature of the assay: Growth inhibitory activity against Spodoptera frugiperda (fall armyworm) larvae fed with compound containing diet assessed as reduction in adult emergence at 20 ug/ml. In kind it is functional.
Assay [26] has as its system Spodoptera frugiperda. Nature of the assay: Growth inhibitory activity against first-instar larval stage of Spodoptera frugiperda (fall armyworm) fed with compound incorporated diet assessed as weight gained at 10 ug/ml after 21 days (reference value: 100%). In kind it is functional.
In assay [27] the test system is Spodoptera frugiperda. The experiment in a line: Growth inhibitory activity against first-instar larval stage of Spodoptera frugiperda (fall armyworm) fed with compound incorporated diet assessed as length gained at 50 ug/ml after 7 days (reference value: 100%). In kind it is functional.
The test system of assay [28] is Spodoptera frugiperda. The experiment in a line: Insecticidal activity against first-instar larval stage of Spodoptera frugiperda (fall armyworm) fed with compound incorporated diet assessed as mortality at 10 ug/ml after 21 days (reference value: 5.6%). To be noted: 504 h. In kind it is functional.
Assay [29] deals with Spodoptera frugiperda. Nature of the assay: Insecticidal activity against first-instar larval stage of Spodoptera frugiperda (fall armyworm) fed with compound incorporated diet assessed as mortality at 50 ug/ml after 21 days (reference value: 5.6%). In kind it is functional. To be noted: 504 h.
Assay [30] deals with Spodoptera frugiperda. The experiment in a line: Growth inhibitory activity against Spodoptera frugiperda (fall armyworm) larvae fed with compound containing diet assessed as delay in time to pupation. In kind it is functional, organism-based.
Assay [31] deals with Spodoptera frugiperda. Nature of the assay: Growth inhibitory activity against first-instar larval stage of Spodoptera frugiperda (fall armyworm) fed with compound incorporated diet assessed as weight gained at 25 ug/ml after 7 days (reference value: 100%). In kind it is functional. The arrangement: scale not given: the % may be the effect or the level left.
The subject of assay [32] is Spodoptera frugiperda. The experiment in a line: Growth inhibitory activity against first-instar larval stage of Spodoptera frugiperda (fall armyworm) fed with compound incorporated diet assessed as length gained at 25 ug/ml after 21 days (reference value: 100%). In kind it is functional. The arrangement: scale not given: the % may be the effect or the level left.
The subject of assay [33] is Spodoptera frugiperda. The experiment in a line: Growth inhibitory activity against Spodoptera frugiperda (fall armyworm) larvae fed with compound containing diet assessed as delay in adult emergence. In kind it is functional, organism-based.
The test system of assay [34] is Spodoptera frugiperda. The experiment in a line: Growth inhibitory activity against first-instar larval stage of Spodoptera frugiperda (fall armyworm) fed with compound incorporated diet assessed as length gained at 25 ug/ml after 7 days (reference value: 100%). In kind it is functional. The arrangement: scale not given: the % may be the effect or the level left.

The test system of assay [35] is Spodoptera frugiperda. Nature of the assay: Insecticidal activity against first-instar larval stage of Spodoptera frugiperda (fall armyworm) fed with compound incorporated diet assessed as mortality at 50 ug/ml after 7 days (reference value: 5.6%). In kind it is functional. To be noted: 168 h.
Assay [36] deals with Spodoptera frugiperda. The experiment in a line: Growth inhibitory activity against first-instar larval stage of Spodoptera frugiperda (fall armyworm) fed with compound incorporated diet assessed as length gained at 50 ug/ml after 21 days (reference value: 100%). In kind it is functional.
The test system of assay [37] is Spodoptera frugiperda. The experiment in a line: Growth inhibitory activity against first-instar larval stage of Spodoptera frugiperda (fall armyworm) fed with compound incorporated diet assessed as length gained at 10 ug/ml after 21 days (reference value: 100%). In kind it is functional.
Assay [38] concerns Spodoptera frugiperda. The experiment in a line: Growth inhibitory activity against first-instar larval stage of Spodoptera frugiperda (fall armyworm) fed with compound incorporated diet assessed as weight gained at 25 ug/ml after 21 days (reference value: 100%). In kind it is functional. The arrangement: scale not given: the % may be the effect or the level left.

Usually mortality stands for the percentage killed. For the compound `C=C(C)[C@@H]1CC[C@]2(C)CC[C@]3(C)[C@H](CC[C@@H]4[C@@]5(C)CC[C@H](O)C(C)(C)[C@@H]5CC[C@]43C)[C@@H]12`, in the assay with Drosophila melanogaster [1], the mortality result is “inactive”.
With `C[C@@H]1O[C@@H](O[C@@H]2[C@@H](O)[C@H](OCCc3ccc(O)c(O)c3)O[C@H](CO)[C@H]2OC(=O)/C=C/c2ccc(O)c(O)c2)[C@H](O)[C@H](O)[C@H]1O` [ACETOSIDE], the mortality at 20 µg/mL in the assay on Drosophila melanogaster [2] stood at 92%. The Growth_index is on record as 0.41 with Spodoptera frugiperda [3]; 0.07 in the assay with Spodoptera frugiperda [4]; 0.09 in the assay on Spodoptera frugiperda [5]; 0.45 in the assay with Spodoptera frugiperda [7]; 0.15 in the assay with Spodoptera frugiperda [8]; 0.67 with Spodoptera frugiperda [9]. Further, the Growth_index with Spodoptera frugiperda [11] came out at 0.66; in the assay on Spodoptera frugiperda [14] it was 0.1. Also, the mortality at 100 µg/mL in the assay on Drosophila melanogaster [6] stood at 100%. The result with Spodoptera frugiperda [10] was Active. The Activity in the assay on Spodoptera frugiperda [12] is given as 30%. The mortality at 50 µg/mL with Drosophila melanogaster [13] amounted to 100%.
For orientation: inhibition means the change of the read-out against control, counted positive when it falls. Take `CC(=O)O[C@@H]1C[C@H]2C(C)(C)C(=O)C=C[C@]2(C)[C@H]2CC[C@@]3(C)[C@H](c4ccoc4)OC(=O)[C@H]4O[C@]43[C@@]21C` [GEDUNIN]: the mortality at 20 µg/mL in the assay with Drosophila melanogaster [2] is 87.1%. Also, the Growth_index with Spodoptera frugiperda [3] stood at 0.51; in the assay on Spodoptera frugiperda [4], 0.1; in the assay with Spodoptera frugiperda [7] it was 0.55; in the assay with Spodoptera frugiperda [9], 0.71; with Spodoptera frugiperda [11], 0.77; in the assay with Spodoptera frugiperda [14] it was 0.11. In addition, the Activity in the assay on Spodoptera frugiperda [15] came out at 54.7%; in the assay on Spodoptera frugiperda [19], 7.1%; in the assay on Spodoptera frugiperda [21], 14.1%; in the assay with Spodoptera frugiperda [24], 1.9%; with Spodoptera frugiperda [12], 30%; with Spodoptera frugiperda [31] it was 3.3%. Further, the Activity with Spodoptera frugiperda [32] is on record as 0%; in the assay with Spodoptera frugiperda [34], 20%; in the assay with Spodoptera frugiperda [38] it was 0%. Moreover, the results for the mortality at 25 µg/mL with Spodoptera frugiperda [16] and in the assay with Spodoptera frugiperda [22] were 100% and 38%, respectively. In addition, in the assay on Spodoptera frugiperda [17], the “Larval length gained (% of control)” value is on record as 32.5%. Moreover, the results for the mortality at 10 µg/mL with Spodoptera frugiperda [18] and in the assay with Spodoptera frugiperda [28] were 33% and 100%, respectively. The “Weight gain relative to control” value with Spodoptera frugiperda [20] was determined as 2.05%. In addition, the mortality at 100 µg/mL in the assay on Drosophila melanogaster [6] was found to be 11%. Moreover, the inhibition at 35 µg/mL in the assay with Spodoptera frugiperda [23] is 0%. Further, the inhibition at 20 µg/mL in the assay on Spodoptera frugiperda [25] was found to be 0%. The “Weight gain (% of control)” value in the assay with Spodoptera frugiperda [26] stood at 0%. The “Length gain relative to control” value with Spodoptera frugiperda [27] is recorded as 16.7%. Moreover, the outcome in the assay on Spodoptera frugiperda [10] was Active. Besides, the mortality at 50 µg/mL with Spodoptera frugiperda [29] was 98.7%; in the assay with Drosophila melanogaster [13], 100%; with Spodoptera frugiperda [35], 70.8%. Also, the inhibition entry with Spodoptera frugiperda [30] and in the assay with Spodoptera frugiperda [33] was “Active” throughout. Further, the “Length gained (% of control)” value in the assay with Spodoptera frugiperda [36] stood at 11.6%. Besides, the “Length gained relative to control” value in the assay on Spodoptera frugiperda [37] came out at 0%.
Consider `CC[C@H](CC[C@@H](C)[C@H]1CC[C@H]2[C@@H]3CC=C4C[C@@H](O)CC[C@]4(C)[C@H]3CC[C@]12C)C(C)C`, for which the mortality entry in the assay with Drosophila melanogaster [1] is “inactive”.
On the same count and under the same terms, then `CC1OC2=C(C(=O)c3ccccc3C2=O)C1(C)C` (stereo unspecified), with “inactive”.
